Laboratory results: US7553966B2, “Glucocorticoid mimetics, methods of making them, pharmaceutical compositions, and uses thereof” (Boehringer Ingelheim Pharmaceuticals, Inc., priority 2002, dated 2009)

Columns and labels:
[1] = test system: glucocorticoid receptor; test: Glucocorticoid Receptor Cell Assays (agonist activity in one or more of the above assays); assay type: cell-based; details: qualitative statement; assay not specified
Experimental: B. Glucocorticoid Receptor Cell Assays
1. Induction of Aromatase in Fibroblasts (Cell Assay for Transactivation)
Dexamethasone, a synthetic ligand to the glucocorticoid receptor (GR), induces expression of aromatase in human foreskin fibroblast cells. The activity of aromatase is measured by the conversion of testosterone to estradiol in culture media.
On the day of the experiment, the media in the wells is replaced with fresh media. Cells are treated with test compounds to final concentrations of 10^−5 M to 10^−8 M, and testosterone to a final concentration of 300 ng/mL. Each well has a total volume of 100 μL. Samples are made in duplicates. Control wells include: (a) wells that receive testosterone only, and (b) wells that receive testosterone plus 2 μM of dexamethasone to provide maximum induction of aromatase. Plates are incubated at 37° C. overnight (15 to 18 hours), and supernatants are harvested at the end of incubation. […] The amount of estradiol is inversely proportional to the ELISA signals in each well. The extent of aromatase induction by test compounds is expressed as a relative percentage to dexamethasone. EC50 values of test compounds are derived by non-linear curve fitting.
2. Inhibition of IL-6 Production in Fibroblasts (Cell Assay for Transrepression)
Human foreskin fibroblast cells produce IL-6 in response to stimulation by pro-inflammatory cytokine IL-1.
On the next day, media in the wells is replaced with fresh media. Cells are treated with IL-1 (rhIL-1α, R&D Systems Cat. No. 200-LA) to a final concentration of 1 ng/mL, and with test compounds to final concentrations of 10^−5 M to 10^−8 M, in a total volume of 200 μL per well. Samples are done in duplicates. […] Positive control wells receive IL-1 only and represent maximum (or 100%) amount of IL-6 production. Plates are incubated at 37° C. overnight (15 to 18 hours), and supernatants are harvested at the end of incubation. IL-6 levels in the supernatants are determined by the ELISA kits for IL-6 (MedSystems Diagnostics GmbH, Vienna, Austria, Cat. No. BMS213TEN) according to manufacture's instructions. The extent of inhibition of IL-6 by test compounds is expressed in percentage relative to positive controls. IC50 values of test compounds are derived by non-linear curve fitting.
Evaluation of agonist or antagonist activity of compounds binding to the glucocorticoid receptor may be determined by any of the assays.
3. Modulation of Tyrosine Aminotransferase (TAT) Induction in Rat Hepatoma Cells
Testing of compounds for agonist or antagonist activity in induction of tyrosine aminotransferase (TAT) in rat hepatoma cells.
H4-II-E-C3 cells were incubated overnight in 96 well plates (20,000 cells/100 μL/well) in MEM medium containing 10% heat inactivated FBS and 1% nonessential amino acids. On the next day, cells were stimulated with the indicated concentrations of dexamethasone or test compound (dissolved in DMSO, final DMSO concentration 0.2%) for 18 hours. Control cells were treated with 0.2% DMSO. After 18 hours, the cells were lysed in a buffer containing 0.1% Triton X-100 and the TAT activity was measured in a photometric assay using tyrosine and alpha-ketoglutarate as substrates.
For measuring antagonist activity, the hepatoma cells were pre-stimulated by addition of dexamethasone (concentration ranges from 3×10^−9 M to 3×10^−8 M) shortly before the test compound was applied to the cells.
4. Modulation of MMTV-Luc Induction in HeLa Cells
Testing of compounds for agonist or antagonist activity in stimulation of MMTV-(mouse mammary tumor virus) promoter in HeLa cells.
Cells were cultured overnight in DMEM medium without phenol red, supplemented with 3% CCS (charcoal treated calf serum) and then transferred to 96 well plates (15,000 cells/100 μL/well).

[2] = target: T1, human glucocorticoid receptor (GR) complex (Homo sapiens, UniProt P04150); test: Glucocorticoid Receptor Competitive Binding Assay (fluorescence polarization, TAMRA-labeled dexamethasone probe); details: qualitative statement; competition with TAMRA-labeled dexamethasone
T1 construct: made in house; host or cells: insect expression system (baculovirus lysate)
T1 sequence (P04150 1-777): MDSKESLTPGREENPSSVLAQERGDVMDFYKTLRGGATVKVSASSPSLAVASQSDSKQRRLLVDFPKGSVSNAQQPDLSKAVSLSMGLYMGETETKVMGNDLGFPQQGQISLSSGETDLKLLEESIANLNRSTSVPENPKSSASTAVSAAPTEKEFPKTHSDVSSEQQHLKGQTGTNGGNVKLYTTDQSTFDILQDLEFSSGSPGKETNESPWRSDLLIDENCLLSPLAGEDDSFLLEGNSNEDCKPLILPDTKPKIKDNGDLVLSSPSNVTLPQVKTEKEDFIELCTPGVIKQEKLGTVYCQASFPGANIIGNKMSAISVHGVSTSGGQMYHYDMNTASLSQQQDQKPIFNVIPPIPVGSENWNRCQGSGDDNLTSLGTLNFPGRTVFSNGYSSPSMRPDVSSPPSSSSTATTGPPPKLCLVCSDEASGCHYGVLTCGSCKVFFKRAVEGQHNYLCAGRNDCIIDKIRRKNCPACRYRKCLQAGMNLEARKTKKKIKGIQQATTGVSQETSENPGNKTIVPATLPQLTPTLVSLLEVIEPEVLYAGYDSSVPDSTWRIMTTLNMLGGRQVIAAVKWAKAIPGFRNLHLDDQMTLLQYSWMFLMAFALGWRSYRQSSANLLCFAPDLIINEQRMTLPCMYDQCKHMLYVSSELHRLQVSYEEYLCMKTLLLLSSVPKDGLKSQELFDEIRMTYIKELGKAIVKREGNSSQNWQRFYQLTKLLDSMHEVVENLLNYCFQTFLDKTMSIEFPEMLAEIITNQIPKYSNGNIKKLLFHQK
Experimental: Compounds of the invention were evaluated for binding to the steroid receptor by a fluorescence polarization competitive binding assay.
A. Glucocorticoid Receptor Competitive Binding Assay
Step 1. Characterization of the Fluorescent Probe
The wavelengths for maximum excitation and emission of the fluorescent probe should first be measured. An example of such a probe is rhodamine (TAMRA)-labeled dexamethasone.
The affinity of the probe for the steroid receptor was then determined in a titration experiment. The fluorescence polarization value of the probe in assay buffer was measured on an SLM-8100 fluorometer using the excitation and emission maximum values described above. Aliquots of expression vector lysate were added and fluorescence polarization was measured after each addition until no further change in polarization value was observed. Non-linear least squares regression analysis was used to calculate the dissociation constant of the probe from the polarization values obtained for lysate binding to the probe.
Step 2. Screening for Inhibitors of Probe Binding
This assay uses fluorescence polarization (FP) to quantitate the ability of test compounds to compete with tetramethyl rhodamine (TAMRA)-labeled dexamethasone for binding to a human glucocorticoid receptor (GR) complex prepared from an insect expression system. The assay buffer was: 10 mM TES, 50 mM KCl, 20 mM Na2MoO4. 2H2O, 1.5 mM EDTA, 0.04% w/v CHAPS, 10% v/v glycerol, 1 mM dithiothreitol, pH 7.4. Test compounds were dissolved to 1 mM in neat DMSO and then further diluted to 10× assay concentration in assay buffer supplemented with 10% v/v DMSO. Test compounds were serially diluted at 10× assay concentrations in 10% DMSO-containing buffer in 96-well polypropylene plates. […] Positive controls were reaction mixtures containing no test compound; negative controls (blanks) were reaction mixtures containing 0.7 μM to 2 μM dexamethasone. […] IC50 values were determined by iterative non-linear curve fitting of the FP signal data to a 4-parameter logistic equation.

| activity in the GR binding assay [2] | SMILES | activity as agonists of the glucocorticoid receptor function in one or more of the above assays [1] |
| --- | --- | --- |
| – | COc1ccc(Br)cc1C(C)(C)CC(O)(Cc1cc2c(C)cc(C#N)cc2[nH]1)C(F)(F)F (centres unmarked) | potent agonists |
| – | CC(C)(CC(O)(Cc1[nH]c2ccccc2c1C#N)C(F)(F)F)c1cccc2c1OCC2 (centres unmarked) [2-[4-(2,3-Dihydrobenzofuran-7-yl)-2-hydroxy-4-methyl-2-trifluoromethylpentyl]-1H-indole-3-carbonitrile] | potent agonists |
| – | COc1ccc(F)cc1C(C)(C)CC(O)(Cc1cc2ccccc2[nH]1)C1CC1 (centres unmarked) [2-Cyclopropyl-4-(5-fluoro-2-methoxyphenyl)-1-(1H-indol-2-yl)-4-methylpentan-2-ol] | agonists |
| – | CC(C)(CC(O)(Cc1cc2cc(C#N)ccc2[nH]1)C(F)(F)F)c1cccc2c1OCC2 (centres unmarked) | potent agonists |
| – | Cc1ccc(F)cc1C(C)(C)CC(O)(Cc1cc2ccncc2[nH]1)C(F)(F)F (centres unmarked) [1,1,1-Trifluoro-4-(5-fluoro-2-methylphenyl)-4-methyl-2-(1H-pyrrolo[2,3-c]pyridin-2-ylmethyl)pentan-2-ol] | potent agonists |
| potent activity | COC(=O)c1ccc2[nH]c(CC(O)(CC(C)(C)c3cc(Br)ccc3OC)C(F)(F)F)cc2c1 (centres unmarked) [2-[4-(5-Bromo-2-methoxyphenyl)-2-hydroxy-4-methyl-2-trifluoromethylpentyl]-1H-indole-5-carboxylic acid methyl ester] | – |
| potent activity | COc1ccc(F)cc1C(C)(C)CC(O)(Cn1cc(C#N)c2ccccc21)C(F)(F)F (centres unmarked) [1-[4-(5-Fluoro-2-methoxyphenyl)-2-hydroxy-4-methyl-2-trifluoromethylpentyl]-1H-indole-3-carbonitrile] | – |
| potent activity | CC(C)(CC(O)(Cc1cc(Cl)nc2ccccc12)C(F)(F)F)c1cc(F)ccc1O (centres unmarked) [1,1,1-Trifluoro-4-(5-fluoro-2-hydroxyphenyl)-4-methyl-2-(2-chloroquinolin-4-ylmethyl)pentan-2-ol] | – |
| potent activity | COc1ccc(F)cc1C(C)(C)CC(O)(Cc1nc2ccccc2[nH]1)C(F)(F)F (centres unmarked) [2-(1H-Benzimidazol-2-ylmethyl)-1,1,1-trifluoro-4-(5-fluoro-2-methoxyphenyl)-4-methylpentan-2-ol] | – |
| – | CC(C)(CC(O)(Cn1cc(C#N)c2ccccc21)C(F)(F)F)c1cccc2c1OCC2 (centres unmarked) | potent agonists |
| potent activity | CC(C)(CC(O)(Cc1cc2cnccc2[nH]1)C(F)(F)F)c1cccc(F)c1 (centres unmarked) [1,1,1-Trifluoro-4-(3-fluorophenyl)-4-methyl-2-(1H-pyrrolo[3,2-c]pyridin-2-ylmethyl)pentan-2-ol] | – |
| potent activity | COc1ccc(F)cc1C(C)(C)CC(O)(Cn1ccnc1-c1ccccc1)C(F)(F)F (centres unmarked) [2-(2-Phenylimidazol-1-ylmethyl)-1,1,1-trifluoro-4-(5-fluoro-2-methoxyphenyl)-4-methylpentan-2-ol] | – |
| potent activity | COc1ccc(F)cc1C(C)(C)CC(O)(Cc1cc2ccccc2[nH]1)C(C)C (centres unmarked) [5-(5-Fluoro-2-methoxyphenyl)-3-(indol-2-ylmethyl)-2,5-dimethylhexan-3-ol] | – |
| potent activity | CC(C)(CC(O)(Cc1cc2ccncc2[nH]1)C(F)(F)F)c1cc(F)cc2c1OCC2 (centres unmarked) [1,1,1-Trifluoro-4-(5-fluoro-2,3-dihydrobenzofuran-7-yl)-4-methyl-2-(1H-pyrrolo[2,3-c]pyridin-2-ylmethyl)pentan-2-ol] | – |
| potent activity | CC(C)(CC(O)(Cc1ccnc2cc(F)ccc12)C(F)(F)F)c1ccc(F)cc1 (centres unmarked) [1,1,1-Trifluoro-4-(4-fluorophenyl)-2-(7-fluoroquinolin-4-ylmethyl)-4-methylpentan-2-ol] | – |
| potent activity | CCc1cccc(C(C)(C)CC(O)(Cc2ccnc3ccccc23)C(F)(F)F)c1O (centres unmarked) [2-Ethyl-6-(4,4,4-trifluoro-3-hydroxy-1,1-dimethyl-3-quinolin-4-ylmethylbutyl)phenol] | – |
| potent activity | COc1ccc(F)cc1C(C)(C)CC(O)(Cc1ccnc(Br)c1)C(F)(F)F (centres unmarked) [1,1,1-Trifluoro-4-(5-fluoro-2-methoxyphenyl)-4-methyl-2-(2-bromopyridin-4-ylmethyl)pentan-2-ol] | – |
| potent activity | COc1ccc(F)cc1C(C)(C)CC(O)(Cc1cc2cccnc2[nH]1)C(F)(F)F (centres unmarked) [1,1,1-Trifluoro-4-(5-fluoro-2-methoxyphenyl)-4-methyl-2-(1H-pyrrolo[2,3-b]pyridin-2-ylmethyl)pentan-2-ol] | – |
| potent activity | COc1ccc(F)cc1C(C)(C)CC(O)(Cc1nc2ccc(F)c(F)c2[nH]1)C(F)(F)F (centres unmarked) [2-(6,7-Difluoro-1H-benzoimidazol-2-ylmethyl)-1,1,1-trifluoro-4-(5-fluoro-2-methoxyphenyl)-4-methylpentan-2-ol] | – |
| potent activity | CC(C)(CC(O)(Cc1cc2ccccc2[nH]1)C(F)(F)F)c1ccc2c(c1)CCO2 (centres unmarked) [4-(2,3-Dihydrobenzofuran-5-yl)-1,1,1-trifluoro-2-(1H-indol-2-ylmethyl)-4-methylpentan-2-ol] | – |
